# Measurements taken from patent US6903118B1, “Piperazinyl-substituted pyridylalkane, alkene and alkine carboxamides” (Klinge Pharma GmbH, priority 1997, dated 2005).
row,melting point,Compound
1,168 to 171 °C,"O=C(C=Cc1cccnc1)NCCC(O)CN1CCN(C(c2ccccc2)c2ccccc2)CC1 (stereo not shown) [Substance 29, N-[4-(4-diphenylmethyl-piperazin-1-yl)-3-hydroxy-butyl]-3-pyridin-3-yl-acrylamide]"
2,115 °C,"O=C(C=Cc1cccnc1)NCCCCN1CCN(c2ccccc2-c2ccccc2)CC1 [Substance 68, N-[4-(4-biphenyl-2-yl-piperazin-1-yl)-butyl)-3-pyridin-3-yl-acrylamide]"
3,108 to 109 °C,"O=C(C=Cc1cccnc1)NCCCCN1CCN(c2cccc3c2CCCC3)CC1 [Substance 94, 3-pyridin-3-yl-N-[4-(4-{5,6,7,8-tetrahydro-naphthalin-1-yl}-piperazin-1-yl)-butyl]-acrylamide]"
4,167 to 168 °C,"O=C(C=Cc1cccnc1)NCCCS(=O)(=O)N1CCN(C(c2ccccc2)c2ccccc2)CC1 [Substance 32, N-[3-(4-diphenylmethyl-piperazin-1-yl-sulfonyl)-propyl]-3-pyridin-3-yl-acrylamide]"
5,183 to 184 °C,"O=C(C=Cc1cccnc1)NCCN1CCN(S(=O)(=O)c2ccc3ccccc3c2)CC1 [Substance 227, N-{2-[4-(naphthalin-2-yl-sulfonyl)-piperazin-1-yl]-ethyl}-3-pyridin-3-yl-acrylamide]"
6,110 to 114 °C,"O=C(C=Cc1cccnc1)NCCCCN1CCN(C2CCCc3ccccc32)CC1 (stereo not shown) [Substance 87, 3-pyridin-3-yl-N-{4-[4-(1,2,3,4-tetrahydronaphthalin-1-yl)-piperazin-1-yl]-butyl}-acrylamide]"
7,115 to 117 °C,"O=C(C=Cc1cccnc1)NOCCCN1CCN(C(c2ccccc2)c2ccccc2)CC1 [Substance 30, N-[3-(4-diphenylmethylpiperazin-1-yl)-propoxy]-3-pyridin-3-yl-acrylamide]"
